Tests used:
[1] = biological target: T1, human S1P receptor EDG-8 (S1P5) (Homo sapiens, UniProt Q9H228); test: GTP[γ-35S] binding SPA, S1P receptor profiling (S1P5); format: biochemical; set-up: key to S1P5 mode of action: Agon = agonist; details: GTP[γ-35S] SPA
T1 construct: expressed in transfected cells
Protocol: (§1) Sphingosine-1-phosphate (SIP) Receptor Profiling
(§2) Agonist activities of compounds are tested on the human S1P receptors EDG-1 (S1P1), EDG-3 (S1P3), EDG-5 (S1P2), EDG-6 (S1P4) and EDG-8 (S1P5). […] The assay technology used is SPA (scintillation proximity based assay). Briefly, DMSO dissolved compounds are serially diluted and added to SPA-based (Amersham-Pharmacia) immobilised S1P receptor expressing membrane protein (10-20 μg/well) in the presence of 50 mM Hepes, 100 mM NaCl, 10 mM MgCl2, 10 μM GDP, 0.1% fat free BSA and 0.2 nM GTP [γ^35S] (1200 Ci/mmol). After incubation in 96 well microtiterplates at RT for 120 min, unbound GTP [γ^35S] is separated by a centrifugation step. Luminescence of SPA beads triggered by membrane bound GTP [γ^35S] is quantified with a TOPcount plate reader (Packard). EC50s are calculated using standard curve fitting software. In this assay, the compounds of formula I have a binding affinity to S1P1 receptor <50 nM.

[2] = biological target: T2, human S1P receptor EDG-1 (S1P1) (Homo sapiens, UniProt P21453); test: GTP[γ-35S] binding SPA, S1P receptor profiling (S1P1); format: biochemical; set-up: key to S1P1 mode of action: Agon = agonist; details: GTP[γ-35S] SPA
T2 construct: expressed in transfected cells
Protocol: as §1, §2

[3] = biological target: T3, human S1P receptor EDG-3 (S1P3) (Homo sapiens, UniProt Q99500); test: GTP[γ-35S] binding SPA, S1P receptor profiling (S1P3); format: biochemical; set-up: key to S1P3 mode of action: Agon = agonist; details: GTP[γ-35S] SPA
T3 construct: expressed in transfected cells
Protocol: as §1, §2

[4] = system: peripheral blood lymphocytes; test: Blood lymphocyte depletion; format: in vivo; details: rats, 3.2 mg/kg p.o. after 6 h
Protocol: B. In vivo: Blood Lymphocyte Depletion
A compound of formula I or the vehicle is administered orally by gavage to rats. Tail blood for hematological monitoring is obtained on day −1 to give the baseline individual values, and at 2, 6, 24, 48 and 72 hours after application. In this assay, the compounds of formula I deplete peripheral blood lymphocytes when administered at a dose of 0.03 to 3 mg/kg. For example, following results are obtained: depletion of peripheral blood lymphocytes by more than 50%.

[5] = biological target: T4, human S1P receptor EDG-6 (S1P4) (Homo sapiens, UniProt O95977); test: GTP[γ-35S] binding SPA, S1P receptor profiling (S1P4); format: biochemical; set-up: key to S1P4 mode of action: Agon = agonist; details: GTP[γ-35S] SPA
T4 construct: expressed in transfected cells
T4 sequence (O95977 1-384): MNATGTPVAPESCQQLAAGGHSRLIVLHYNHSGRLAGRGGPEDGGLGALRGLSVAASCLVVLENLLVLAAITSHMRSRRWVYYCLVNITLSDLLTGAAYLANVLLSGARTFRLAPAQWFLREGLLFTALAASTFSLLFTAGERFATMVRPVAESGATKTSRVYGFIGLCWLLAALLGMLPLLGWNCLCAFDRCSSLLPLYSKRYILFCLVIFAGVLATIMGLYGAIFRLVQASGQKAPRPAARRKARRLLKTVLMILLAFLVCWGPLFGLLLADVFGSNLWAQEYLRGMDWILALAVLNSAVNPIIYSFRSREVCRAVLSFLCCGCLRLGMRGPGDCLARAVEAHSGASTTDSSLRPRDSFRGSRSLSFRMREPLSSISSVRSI
Protocol: as §1, §2

[6] = membranes of transfected CHO or RH7777 cells

T3 sequence (Q99500 whole entry): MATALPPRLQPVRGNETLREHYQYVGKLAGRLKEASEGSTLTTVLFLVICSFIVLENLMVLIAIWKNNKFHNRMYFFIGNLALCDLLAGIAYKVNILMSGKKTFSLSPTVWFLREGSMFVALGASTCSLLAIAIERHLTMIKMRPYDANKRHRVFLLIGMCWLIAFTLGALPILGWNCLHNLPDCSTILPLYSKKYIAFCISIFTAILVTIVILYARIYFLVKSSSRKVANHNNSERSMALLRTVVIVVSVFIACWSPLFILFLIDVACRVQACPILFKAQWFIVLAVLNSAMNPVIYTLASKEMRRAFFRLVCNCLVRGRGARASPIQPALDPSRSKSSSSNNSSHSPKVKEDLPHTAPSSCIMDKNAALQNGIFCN
T1 sequence (Q9H228 whole entry): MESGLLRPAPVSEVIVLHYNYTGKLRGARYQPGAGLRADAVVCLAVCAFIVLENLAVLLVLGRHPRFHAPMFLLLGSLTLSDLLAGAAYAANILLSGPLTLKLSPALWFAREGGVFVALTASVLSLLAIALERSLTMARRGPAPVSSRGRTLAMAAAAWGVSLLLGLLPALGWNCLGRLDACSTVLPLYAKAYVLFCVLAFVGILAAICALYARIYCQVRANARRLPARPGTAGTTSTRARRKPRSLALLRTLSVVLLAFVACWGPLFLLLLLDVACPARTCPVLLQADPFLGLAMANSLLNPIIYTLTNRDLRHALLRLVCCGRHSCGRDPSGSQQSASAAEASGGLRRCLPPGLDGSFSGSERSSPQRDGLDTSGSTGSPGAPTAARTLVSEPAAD
T2 sequence (P21453 whole entry): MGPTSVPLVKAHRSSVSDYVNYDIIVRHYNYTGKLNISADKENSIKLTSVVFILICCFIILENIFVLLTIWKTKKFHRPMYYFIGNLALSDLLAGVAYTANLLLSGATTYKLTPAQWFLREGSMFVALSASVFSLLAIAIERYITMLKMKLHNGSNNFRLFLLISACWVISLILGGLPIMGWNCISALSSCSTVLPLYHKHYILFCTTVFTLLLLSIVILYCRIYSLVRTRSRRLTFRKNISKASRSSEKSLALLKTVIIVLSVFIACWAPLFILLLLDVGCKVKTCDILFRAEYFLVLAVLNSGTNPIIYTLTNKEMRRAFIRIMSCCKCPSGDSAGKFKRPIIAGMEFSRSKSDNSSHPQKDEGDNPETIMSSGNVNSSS

S1P5 mode of action [1]: Agon | EC50 [1, 6]: 203 nM | S1P1 mode of action [2]: Agon | EC50 [2, 6]: 11 nM | S1P3 mode of action [3]: Agon | EC50 [3, 6]: 209 nM | S1P4 mode of action [5]: Agon | EC50 [5, 6]: 117 nM
SMILES: CCCCCCCOc1ccc(CC[C@@](C)(N)CC(=O)O)cc1 [Example 1, (R)-3-Amino-5-(4-heptyloxy-phenyl)-3-methyl-pentanoic acid]
depletion of peripheral blood lymphocytes [4]: more than 50%

Source: patent publication US7728020B2, “Amino acid derivatives” (Novartis AG, priority 2004, dated 2010)
